Results reported in PMC11277489, “Novel Piperazine Derivatives of Vindoline as Anticancer Agents” (International Journal of Molecular Sciences, 2024).
Where two headings read alike, the source gives them in different places.

How the values were obtained:
HeLa cell line = test system: HeLa cell line; design: method as in PMID 32102414; conditions: cited from earlier work
[1] = test system: non-tumor Chinese hamster ovary (CHO) cells; assay: CellTiter-Glo Luminescent Cell Viability Assay on non-tumor CHO cells; assay type: cell-based; conditions: for effect on CHO cell viability (in words) / IC50: 48 h; for effect on CHO cell viability (in words): 10^−7 and 10^−6 M; for IC50: read-out: IC50 (estimated)
Procedure: (§1) Three promising conjugates (20, 23, 25) were selected for testing on the non-tumor CHO cell line in the CellTiter-Glo Luminescent Cell Viability Assay (Promega Corporation, Madison, WI, USA) to reveal their selectivity for cancer cells.
(§2) Compounds 20, 23, and 25 were dissolved in DMSO in 10 mM stock solutions and stored frozen until use. CHO cells were cultured in complete Dulbecco’s Modified Eagle’s Medium (DMEM, low glucose (1 g/L)) supplemented with 10% fetal bovine serum, 1% Gibco GlutaMAX-I (100×) solution, 1% Gibco MEM non-essential amino acid solution (100×), and 0.1% penicillin–streptomycin mixture. Cells were grown in T-25 size cell culture flasks under standard cell culture conditions (37 °C, 5% CO2) and passaged at 70–80% confluency. The assay was performed according to the manufacturer’s protocol, as described previously. Briefly, CHO cells were seeded to opaque 96-well culture plates at a density of 5000 cells/100 µL complete DMEM/well. The side rows and columns of the plate were filled with sterile phosphate-buffer saline to avoid an edge effect. Following overnight incubation (37 °C, 5% CO2), the culture medium was aspirated from the cells and replaced with increasing concentrations of drug solutions (10^−5, 10^−6, and 10^−7 M) diluted from the stock solution in sterile complete DMEM (100 µL/well). Untreated cells served as a control, and complete DMEM served as a luminescent background control. Drug-treated cells were incubated for 48 h (37 °C, 5% CO2), and then equilibrated to room temperature in 30 min. At the end of the incubation period, 100 µL of room temperature CellTiter-Glo reagent was added to each well, and the plates were placed on an orbital shaker for 2 min and incubated for additional 10 min at room temperature without shaking. The luminescent signal was measured using an EnSpire AlphaLisa microplate reader (Perkin Elmer, Inc., Waltham, MA, USA). The normalized luminescent values of the treated cells were compared to those of the untreated control. The statistical analysis and calculation of IC50 values were performed in GraphPad Prism 8.0.1 (GraphPad, La Jolla, CA, USA). Estimated IC50 values were calculated by using non-linear regression by fitting a sigmoidal dose–response curve to the data points.

[2] = as above; assay type: cell-based, Chinese hamster; conditions: Chinese hamster, CHO cells, 48 h, 10^−5 M, mean ± SD, n = 9
Procedure: as §1, §2

[3] = Cricetulus griseus, CHO cells, roughly estimated from three concentrations
[4] = CHO cells (non-tumor Chinese hamster ovary cell line)

Row | Compound | IC50 (HeLa cell line) [µM] | effect on CHO cell viability (in words) ([1]; CHO cells) | IC50 ([1]; Cricetulus griseus, CHO) [µM] | viability at 48 h [2] [%] | EC50 ([1]; Cricetulus griseus, CHO, non-tumor cells, read-out: half-maximal effective concentration (EC50)) [µM] | IC50 [1, 3] [µM] | viability at 48 h [2, 4] [%]
1 | CCC12C=CCN3CCC4(c5ccc(OC)cc5N(C)C4C(O)(C(=O)OC)C1OC(=O)CCCN1CCN(C)CC1)C32 (centres unmarked) [Compound 3] | 9.36 |  |  |  |  |  | 
2 | CC[C@]12C=CCN3CC[C@@]4(c5ccc(OC)cc5N(C)[C@H]4[C@@](O)(C(=O)OC)[C@@H]1OC(=O)CCCN1CCN(C(c4ccc(F)cc4)c4ccc(F)cc4)CC1)[C@@H]32 [Compound 25] |  | did not affect CHO cell viability | ~6.64 | 33.5 ± 19.6 |  |  | 
3 | CC[C@]12C=CCN3CC[C@@]4(c5ccc(OC)cc5N(C)[C@H]4[C@@](O)(C(=O)OC)[C@@H]1OC(=O)CCCN1CCN(Cc4ccc(C(F)(F)F)cc4)CC1)[C@@H]32 [Compound 23] |  | did not affect CHO cell viability |  |  | 10.8 | ~10.8 | 52.8 ± 7.25
4 | CCC12C=CCN3CCC4(c5cc(NC(=O)CN6CCN(C(c7ccc(F)cc7)c7ccc(F)cc7)CC6)c(OC)cc5N(C)C4C(O)(C(=O)OC)C1OC(C)=O)C32 (centres unmarked) [Compound 20] |  | did not affect CHO cell viability |  |  |  | ~2.54 | 1.25 ± 0.77
